The values that follow come from patent publication US20260234180A1, “AMINO ACID DERIVATIVE, PREPARATION METHOD THEREFOR, AND PHARMACEUTICAL COMPOSITION FOR TREATING HEPATITIS, COMPRISING SAME” (priority 2021, published 2026).

In one test the test system is HBV virus. In words: HBV infection of HepG2-NTCP cells, Southern blot analysis. Format: cell-based, hepatitis B virus (HBV). The following applies: 20 μM. As to the method:
Specifically, the HepG2-NTCP cell line was cultured on a 6-well plate, incubation was performed overnight, HBV inhibitors were treated at a concentration of 20 μM, and the positive control Myrcludex-B (MyrB) was treated at a concentration of 200 nM, followed by culture for 24 hours. After HBV infection into the cells to make HBV 3000 genome equivalent per ml/cell (Geq/cell), the cell culture medium was replaced (medium changing, MC) a day after the viral infection to remove the virus unattached to cell membranes. In order to measure an amount of virus that entered the cell, medium changing (MC) was performed once more 4 days after viral infection. 2 days after replacement, HBeAg ELISA analysis was performed using a supernatant, and Southern blot analysis was performed with cell pellets.
First, the cell pellets were pipetted with 100 μl of HEPES lysis buffer (10 mM HEPES, 100 mM NaCl, 1 mM EDTA, 1% NP-40), placed on ice for 20 minutes, and then centrifuged with a centrifuge under the conditions at 4° C. and 13000 rpm. After transferring the supernatant only to the new microtube, 4.5 μl of nuclease buffer I (10 mM CaCl2), 12 mM MgCl2, DNase 10 units) was added to carry out a reaction at 37° C. for 2 hours, and 40 μl of 26% PEG solution was added, followed by a reaction on ice for 1 hour. After centrifuging with the centrifuge at 4° C. and 13000 rpm for 30 minutes, and the supernatant was removed cleanly. After releasing the pellets with 100 μl of nuclease buffer II (10 mM Tris, 8 mM CaCl2), 6 mM MgCl2), 287.5 μl of 0.5% SDS buffer (25 mM Tris, 10 mM EDTA, 0.5% SDS, 100 mM NaCl) was added, and 12.5 μl of 20 mg/ml proteinase K was added, followed by a reaction at 37° C. for 2 hours. 400 μl of phenol-chloroform-isoamyl alcohol was added, centrifugation was performed at room temperature at 13000 rpm after voltexing, the supernatant was transferred to a new tube, 40 μl of 3 M NaOAc was added, and 800 μl of 100% ethanol was added for inverting, followed by a reaction overnight at −20° C. After performing centrifugation at 4° C. and 13000 rpm for 30 minutes, 800 μl of 70% ethanol was added and mixed to the pellet obtained by removing the supernatant, centrifugation was performed at 4° C. and 13000 rpm for 10 minutes, and then the supernatant was discarded. The ethanol was dried for 5 minutes to leave only the HBV DNA pellets, and then the pellets were dissolved again in 15 μl of TE buffer (10 mM Tris, 1 mM EDTA). HBV DNA samples were loaded in 1% agarose gel, and electrophoresis was performed. It was then immersed in denature buffer (0.25 N NaOH, 1 M NaCl) for 30 minutes to denature dsDNA of HBV into ssDNA. The DNA in the gel was transferred to a Nylon membrane using a transfer buffer (0.4 M NaOH), the membrane was soaked with a 2×SSC buffer (sigma, cat #85639) for neutralization, followed by drying in air. The membrane was immersed in a church buffer (10% BSA, 0.5 M EDTA, 1 M NaPi, 20% SDS), and the radioisotopes were hybridized using a Mega prime kit (GE healthcare, RPN1607). After washing three times with washing buffer (2×SSC, 0.1% SDS), measurement was performed using radioisotope measurement equipment, and a relative replication rate (%) to the negative control group (Mock) was calculated and shown.

The target of test [1] is T1, NTCP (Na+ taurocholate cotransporting peptide), HepG2-hNTCP-C4 cell line (Homo sapiens, UniProt Q14973).
T1 construct: expressed in transfected cells; host or cells: HepG2-hNTCP-C4 (HepG2 cells expressing human NTCP)
T1 sequence (Q14973 1-349): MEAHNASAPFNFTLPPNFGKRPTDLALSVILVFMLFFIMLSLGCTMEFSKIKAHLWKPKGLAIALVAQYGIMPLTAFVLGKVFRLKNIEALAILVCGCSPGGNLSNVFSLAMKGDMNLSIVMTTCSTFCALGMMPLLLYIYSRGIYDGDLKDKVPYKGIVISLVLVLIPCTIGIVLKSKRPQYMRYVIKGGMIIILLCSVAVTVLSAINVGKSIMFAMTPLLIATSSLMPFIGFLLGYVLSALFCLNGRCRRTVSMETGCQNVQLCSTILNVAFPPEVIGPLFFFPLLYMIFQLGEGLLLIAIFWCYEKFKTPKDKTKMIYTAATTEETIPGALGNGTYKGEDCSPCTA
Description: Inhibition of binding between FITC-labelled PreS1 and NTCP expressing cell line, flow cytometry. As to the method: HepG2-hNTCP-C4 cell line, a cell line expressing NTCP, was seeded in a 6 well plate at a density of 2×10^5/well and incubated at 4° C. for 30 minutes when the confluency reached 80% after overnight incubation for 2 days. Thereafter, 20 nM PreS1 (Myr-GTNL […]-Lys(FITC) (SEQ ID NO: 1)) and the compounds in Example 1, Examples 38 to 56 or the compound in Comparative Example 1 were treated by diluting in culture media at 4° C. at a concentration of 50 µM respectively, and the media was suctioned after 2 hours, followed by washing 3 times with 4° C. PBS. In order to take the cells off from the plate, 500 μl of 0.5 mM EDTA PBS solution was treated, and then incubation was performed at 37° C. for 15 minutes to check whether the cells fell off through an optical microscope. After taking off the cells by pipetting, the cells were collected in a 1.5 ml tube and centrifuged (4000 rpm, 4° C., 3 min). After suctioning the supernatant, the pellet was washed 3 times with 4° C. PBS, and then green fluorescence was measured via flow cytometry. In this case, taurocholic acid (TCA), a compound known as a substrate of NTCP to reduce the entry of HBV or HDV, was used as a positive control group.
In the graph at the top of FIG. 1, black (1) and red (2) indicate a negative control group with no treatment and an HBV-induced group (HBV preS1) solely treated with PreS1, respectively. Blue (HBV preS1+HBV entry inhibitor) (3) is the fluorescence value for each of Examples or Comparative Examples, evaluated that the closer to the negative control group, the more inhibited the binding between PreS1 and the NTCP cell line.
The experimental method was the same as in the Experimental Example 1-1, and 20 nM PreS1 and each compound were treated at 4 concentrations (0.2 μM, 2 μM, 10 μM, 50 μM).
With an expectation that there is a structure-activity relationship among compounds composed of bile acid and amino acids, for each of bile acids in Comparative Example 1 (lithocholic acid, LCA), Comparative Example 2 (ursodeoxycholic acid, UDCA), Comparative Example 3 (cholic acid, CA), Comparative Example 4 (hyodeoxycholic acid, HDCA), Comparative Example 5 (deoxycholic acid, DCA), and Comparative Example 6 (chenodeoxycholic acid, CDCA), an evaluation experiment was conducted on an ability to inhibit the binding between PreS1 and NTCP expressing cell lines, and also for Examples 1 (LCA-Ile) and Example 44 (LCA-Val) as well as the compounds in Example 2 (UDCA-Ile), Example 3 (UDCA-Val), Example 6 (CA-Ile), Example 7 (CA-Val), Example 8 (HDCA-Ile), Example 9 (HDCA-Val), Example 10 (DCA-Ile), Example 11 (DCA-Val), Example 14 (CDCA-Ile), and Example 15 (CDCA-Val) in which bile acid parts (lithocholic acid) of Example 1 (LCA-Ile) and Example 44 (LCA-Val) were substituted with other types of bile acids in Comparative Examples 2 to 6, an evaluation experiment was conducted on an ability to inhibit the binding between PreS1 and NTCP expressing cell lines. The experimental method was the same as in the Experimental Example 1-1, and 18 compounds in the Comparative Examples 1 to 6, Examples 1 to 3, Examples 6 to 11, Examples 14 to 15, and Example 44 were treated at a concentration of 50 µM along with 20 nM PreS1.
In FIG. 9, an evaluation experiment was conducted to check a degree of inhibiting the binding between PreS1 and NTCP expressing cell lines for compounds in Examples 4 to 5, Examples 12 to 13, Examples 16 to 17, and Comparative Examples 2 (ursodeoxycholic acid, UDCA), Comparative Examples 5 (deoxycholic acid, DCA), and Comparative Examples 6 (chenodeoxycholic acid, CDCA) according to the present disclosure. The experimental method was the same as the Experimental Example 1-1.
In the Experimental Examples 1-4, it was determined whether there is additionally concentration dependence for Example 4 (UDCA-Trp), a compound with good inhibitory ability. […]
In general terms: In flow cytometry, cells or beads pass a laser one at a time.

Take `CC(C)[C@H](NC(=O)CC[C@@H](C)[C@H]1CC[C@H]2[C@@H]3CC[C@@H]4C[C@H](O)CC[C@]4(C)[C@H]3CC[C@]12C)C(=O)N[C@@H](Cc1c[nH]c2ccccc12)C(=O)O` [Example 25, (S)-2-((S)-2-((R)-4-((3R,5R,8R,9S,10S,13R,14S,17R)-3-hydroxy-10,13-dimethyl-hexadecahydro-1H-cyclopenta[a]phenanthren-17-yl)pentanamido)-3-methylbutanamido)-3-(1H-indol-3-yl)propanoic acid]: the “amount of HBeAg DNA detected compared to the negative control group (Mock)” value with HBV virus was “relatively less amount”.

Turning to `C[C@H](CCC(=O)N[C@@H](Cc1ccc(O)cc1)C(=O)O)[C@H]1CC[C@H]2[C@@H]3CC[C@@H]4C[C@H](O)CC[C@]4(C)[C@H]3CC[C@]12C` [Example 52, (S)-2-((R)-4-((3R,5R,8R,9S,10S,13R,14S,17R)-3-hydroxy-10,13-dimethyl-hexadecahydro-1H-cyclopenta[a]phenanthren-17-yl)pentanamido)-3-(4-hydroxyphenyl)propanoic acid], in test [1] (0.2 μM, 2 μM, 10 μM, 50 μM, 20 nM PreS1), the “effect of inhibiting the binding between PreS1 and NTCP expressing cell lines by treatment concentration” value is “concentration dependent”. Further, in test [1] (compound 50 µM, 20 nM PreS1, 4° C., 2 hours, lower = more inhibited binding), the “relative fluorescence intensity compared to Comparative Example 1 (LCA)” value was “low and lower”. Also, the “amount of HBeAg DNA detected compared to the negative control group (Mock)” value with HBV virus is listed as “relatively less amount”.

Regarding `C[C@H](CCC(=O)N[C@@H](CCC(=O)O)C(=O)O)[C@H]1CC[C@H]2[C@@H]3CC[C@@H]4C[C@H](O)CC[C@]4(C)[C@H]3CC[C@]12C` [Example 55, (S)-2-((R)-4-((3R,5R,8R,9S,10S,13R,14S,17R)-3-hydroxy-10,13-dimethyl-hexadecahydro-1H-cyclopenta[a]phenanthren-17-yl)pentanamido)pentanedioic acid], the “amount of HBeAg DNA detected compared to the negative control group (Mock)” value in the test on HBV virus is given as “relatively less amount”.
